For experiment [1], the system named is P. aeruginosa UFR35 (OXA-23). Description: MIC broth microdilution, alone and synergy with ceftazidime. The note with it: for MIC of CAZ in combination with compound at 4 μg/mL: strain UFR35, compound fixed at 4 μg/mL. In general terms: In broth dilution the organism is exposed to a series of concentrations in liquid medium.
The test system of experiment [2] is K. oxytoca UFR21 (TEM-1, CTX-M-15, OXA-48). The description is as above. The note with it: for MIC: Klebsiella oxytoca, read-out: MIC compounds of the invention alone; for MIC of CAZ in combination with compound at 4 μg/mL: strain UFR21, compound fixed at 4 μg/mL.
Experiment [3] relates to P. aeruginosa UFR90 (derepressed AmpC, OprD−). Described as above. The note with it: strain UFR90; compound fixed at 4 μg/mL.
The target of another experiment is T1, KPC-2 (Klebsiella pneumoniae, UniProt Q9F663).
T1 construct: made in house; host or cells: E. coli
T1 sequence (Q9F663 25-293 limits assumed): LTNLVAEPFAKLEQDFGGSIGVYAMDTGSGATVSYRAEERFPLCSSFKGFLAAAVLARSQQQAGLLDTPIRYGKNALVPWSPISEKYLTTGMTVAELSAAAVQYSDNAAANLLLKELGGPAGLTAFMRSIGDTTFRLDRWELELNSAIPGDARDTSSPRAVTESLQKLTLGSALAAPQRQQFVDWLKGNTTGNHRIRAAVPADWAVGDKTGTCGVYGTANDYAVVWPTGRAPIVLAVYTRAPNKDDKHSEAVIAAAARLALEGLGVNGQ
Briefly: β-lactamase inhibitory activity, nitrocefin hydrolysis. It counts as biochemical.

In the next experiment the test system is E. cloacae P99 (AmpC). Briefly: MIC broth microdilution, alone and synergy with ceftazidime. The note with it: for MIC: Enterobacter cloacae, read-out: MIC compounds of the invention alone; for MIC of CAZ in combination with compound at 4 μg/mL: strain P99, compound fixed at 4 μg/mL.
In the next experiment the test system is E. coli RGN238 (OXA-1). Described as above. The note with it: for MIC: Escherichia coli, read-out: MIC compounds of the invention alone; for MIC of CAZ in combination with compound at 4 μg/mL: strain RGN238, compound fixed at 4 μg/mL.
Another experiment addresses T2, P99 AmpC (Enterobacter cloacae, UniProt P05364).
T2 construct: made in house; host or cells: E. coli
Description: β-lactamase inhibitory activity, nitrocefin hydrolysis. The class given is biochemical. The note with it: class (C); 30 min pre-incubation; nitrocefin 200 μM.

Another experiment has as its target T3, CTX-M-15 (Escherichia coli, UniProt Q9EXV5).
T3 construct: made in house; host or cells: E. coli
The description is as above. The class given is biochemical.

A further experiment deals with T4, OXA-1 (Escherichia coli, UniProt P13661).
T4 construct: made in house; host or cells: E. coli
T4 sequence (P13661 26-276): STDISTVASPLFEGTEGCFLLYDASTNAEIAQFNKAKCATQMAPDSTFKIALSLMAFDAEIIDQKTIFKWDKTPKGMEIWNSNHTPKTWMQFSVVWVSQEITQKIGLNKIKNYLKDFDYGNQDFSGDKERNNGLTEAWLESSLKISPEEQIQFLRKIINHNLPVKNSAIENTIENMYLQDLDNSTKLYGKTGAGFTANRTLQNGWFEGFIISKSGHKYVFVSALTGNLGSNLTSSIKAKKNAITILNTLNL
Described as above. The class given is biochemical.

For experiment [4], the system named is K. pneumoniae UFR24 (TEM-1, SHV-2, SHV-11, OXA-1, OXA-48, OXA-47). Briefly: MIC broth microdilution, alone and synergy with ceftazidime. The note with it: for MIC of CAZ in combination with compound at 4 μg/mL: strain UFR24, compound fixed at 4 μg/mL.
The subject of experiment [5] is K. pneumoniae 6299 (TEM-1, SHV-11, OXA-163). The description is as above. The note with it: for MIC: Klebsiella pneumoniae, read-out: MIC compounds of the invention alone; for MIC of CAZ in combination with compound at 4 μg/mL: strain 6299, compound fixed at 4 μg/mL.
The subject of experiment [6] is E. cloacae 260508 (TEM-1, CTX-M-15). Described as above. The note with it: for MIC: Enterobacter cloacae, read-out: MIC compounds of the invention alone; for MIC of CAZ in combination with compound at 4 μg/mL: strain 260508, compound fixed at 4 μg/mL.
Experiment [7] deals with P. aeruginosa UFR92 (derepressed AmpC, OprD−). The description is as above. The note with it: strain UFR92; compound fixed at 4 μg/mL.
Experiment [8] relates to E. coli 190317 (TEM-1, SHV-12, CTX-M-15, OXA-1). The experiment is described as above. The note with it: for MIC of CAZ in combination with compound at 4 μg/mL: strain 190317, compound fixed at 4 μg/mL.
The test system of experiment [9] is P. aeruginosa UFR59 (IMP-29). Description: MIC broth microdilution, compounds alone. The note with it: Pseudomonas aeruginosa, read-out: MIC compounds of the invention alone.
In experiment [10] the test system is P. aeruginosa UFR47 (VIM-1). Briefly: MIC broth microdilution, compounds alone. The note with it: Pseudomonas aeruginosa, read-out: MIC compounds of the invention alone.
The test system of experiment [11] is P. aeruginosa UFR48 (VIM-2). Description: MIC broth microdilution, compounds alone. The note with it: Pseudomonas aeruginosa, read-out: MIC compounds of the invention alone.

T2 sequence (P05364 21-381): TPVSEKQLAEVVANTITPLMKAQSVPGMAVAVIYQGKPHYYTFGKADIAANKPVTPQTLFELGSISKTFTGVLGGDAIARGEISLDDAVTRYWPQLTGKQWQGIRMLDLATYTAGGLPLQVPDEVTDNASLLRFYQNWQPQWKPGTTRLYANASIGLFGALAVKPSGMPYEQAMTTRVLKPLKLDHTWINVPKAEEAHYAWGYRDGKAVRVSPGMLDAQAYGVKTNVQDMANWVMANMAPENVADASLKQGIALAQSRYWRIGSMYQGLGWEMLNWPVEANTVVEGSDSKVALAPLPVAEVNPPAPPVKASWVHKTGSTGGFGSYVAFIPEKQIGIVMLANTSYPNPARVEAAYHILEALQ
T3 sequence (Q9EXV5 entry or part of it): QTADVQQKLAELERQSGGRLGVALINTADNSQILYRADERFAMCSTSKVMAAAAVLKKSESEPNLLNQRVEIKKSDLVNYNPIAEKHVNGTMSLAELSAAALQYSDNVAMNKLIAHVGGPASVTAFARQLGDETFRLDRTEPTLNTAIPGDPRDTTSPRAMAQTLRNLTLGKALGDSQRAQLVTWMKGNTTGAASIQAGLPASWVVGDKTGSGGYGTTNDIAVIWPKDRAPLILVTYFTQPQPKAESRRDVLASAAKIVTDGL
Description for KPC-2: (§1) Enzyme activity was monitored by spectrophotometric measurement of nitrocefin (NCF-TOKU-E, N005) hydrolysis at 485 nm, at room temperature and in assay buffer A: 100 mM Phosphate pH7, 2% glycerol and 0.1 mg/mL Bovine serum albumin (Sigma, B4287). […] To a transparent polystyrene plate (Corning, 3628) were added in each well 5 μL DMSO or inhibitor dilutions in DMSO and 80 μL enzyme in buffer A. Plates were immediately read at 485 nm in a microplate spectrophotometer (BioTek, PowerWave HT) to enable background subtraction. After 30 min of pre-incubation at room temperature, 15 μL of NCF (200 μM final) were finally added in each well. Final enzyme concentrations were 0.1 nM (TEM-1), 0.075 nM (SHV-1), 0.4 nM (CTX-M-15), 1 nM (KPC-2), 0.2 nM (P99 AmpC), 0.2 nM (CMY-37), 0.4 nM (AmpC P. aeruginosa), 0.2 nM (OXA-1), 1.2 nM (OXA-11), 0.4 nM (OXA-15) and 0.3 nM (OXA-48). After 20 min incubation at room temperature, plates were once again read at 485 nm. Enzyme activity was obtained by subtracting the final signal by the background, and was converted to enzyme inhibition using non inhibited wells. IC50 curves were fitted to a classical Langmuir equilibrium model with Hill slope using XLFIT (IDBS).
Description for P99 AmpC: as §1

Broadly, the MIC is the lowest concentration found to suppress growth. One may read the IC50 as the concentration needed to halve the response being measured. For the molecule `Cn1c2c(sc1=O)C1CN(C2)C(=O)N1OS(=O)(=O)[O-].[Na+]` (stereo not shown) [Example 1, Sodium (5-methyl-4,9-dioxo-3-thia-5,8,10-triaza-tricyclo[6.2.1.0^2.6]undec-2(6)-en-10-yl) sulfate], the “MIC of CAZ in combination with compound at 4 μg/mL” value (“MIC of CAZ in combination” below) in experiment [1] is 4 µg/mL; in experiment [2], 2 µg/mL; in experiment [3], 64 µg/mL; with E. cloacae P99 (AmpC) it was 0.5 µg/mL; in the experiment with E. coli RGN238 (OXA-1) it was less than 0.25 µg/mL; in [4], 4 µg/mL. The “MIC of CAZ in combination” value in experiment [5] was 4 µg/mL; in experiment [6], less than 0.25 µg/mL; in [7] it was 32 µg/mL; in [8] it was no more than 0.125 µg/mL. In addition, the MIC in experiment [2] came to 8 µg/mL; in the experiment on E. cloacae P99 (AmpC), 8 µg/mL; in the experiment on E. coli RGN238 (OXA-1), 2 µg/mL; in [5], 16 µg/mL; in [6], 4 µg/mL. The IC50 was 3.3 nM against KPC-2, 48 nM against P99 AmpC, 0.69 nM against CTX-M-15 and 63 nM on OXA-1.
For `COC(=O)Cn1c2c(sc1=O)C1CN(C2)C(=O)N1OS(=O)(=O)[O-].[Na+]` (stereo not shown) [Example 2, Sodium [5-(2-methoxy-2-oxo-ethyl)-4,9-dioxo-3-thia-5,8,10-triaza-tricyclo[6.2.1.0^2.6]undec-2(6)-en-10-yl] sulfate], the MIC in experiment [2] is 8 µg/mL; in the experiment with E. cloacae P99 (AmpC), 16 µg/mL; with E. coli RGN238 (OXA-1) it was 1 µg/mL; in [4] (Klebsiella pneumoniae, read-out: MIC compounds of the invention alone), 16 µg/mL; in [5] it was 8 µg/mL; in experiment [6], 4 µg/mL. Also, the “MIC of CAZ in combination” value was 16 µg/mL in experiment [2]; 4 µg/mL with E. cloacae P99 (AmpC); less than 0.25 µg/mL with E. coli RGN238 (OXA-1); 4 µg/mL in experiment [4]; 4 µg/mL in experiment [5]; less than 0.25 µg/mL in [6]. For the same molecule, the “MIC of CAZ in combination” value in experiment [8] was less than 0.25 µg/mL. In addition, the IC50 on KPC-2 came to 1.3 nM; against P99 AmpC, 16 nM; on CTX-M-15, 1.1 nM; at OXA-1 it was 38 nM.
For `NCCn1c2c(sc1=O)C1CN(C2)C(=O)N1OS(=O)(=O)[O-].[Na+]` (stereo not shown) [Example 4, Sodium and 2,2,2-trifluoroacetate [5-(2-azaniumethyl)-4,9-dioxo-3-thia-5,8,10-triaza-tricyclo[6.2.1.0^2.6]undec-2(6)-en-10-yl] sulfate], the MIC in experiment [1] (Pseudomonas aeruginosa, read-out: MIC compounds of the invention alone) worked out at 8 µg/mL; in [9] it was 8 µg/mL; in [2] it was 4 µg/mL; in the experiment on E. cloacae P99 (AmpC), 0.5 µg/mL; in the experiment on E. coli RGN238 (OXA-1), 8 µg/mL; in [5], 32 µg/mL. Besides, the MIC in [6] was found to be 8 µg/mL; in experiment [10] it was 16 µg/mL; in experiment [8] (Escherichia coli, read-out: MIC compounds of the invention alone) it was 1 µg/mL; in [11] it was 8 µg/mL. Moreover, the “MIC of CAZ in combination” value in experiment [1] was 2 µg/mL; in [2], less than 0.25 µg/mL; in experiment [3] it was 1 µg/mL; in the experiment with E. cloacae P99 (AmpC), less than 0.25 µg/mL; with E. coli RGN238 (OXA-1), less than 0.25 µg/mL; in experiment [4] it was no more than 0.25 µg/mL. Moreover, the “MIC of CAZ in combination” value was no more than 0.125 µg/mL in [5], less than 0.25 µg/mL in experiment [6], no more than 0.25 µg/mL in experiment [7] and less than 0.25 µg/mL in [8]. For the same molecule, the IC50 against KPC-2 came to 7.4 nM; against P99 AmpC it was 140 nM; against CTX-M-15, 1.3 nM; against OXA-1, 460 nM.
On to `O=C1N2Cc3c(sc(=O)n3CCO)C(C2)N1OS(=O)(=O)[O-].[Na+]` (stereo not shown) [Example 5, Sodium [5-(2-hydroxyethyl)-4,9-dioxo-3-thia-5,8,10-triaza-tricyclo[6.2.1.0^2.6]undec-2(6)-en-10-yl) sulfate], for which the MIC in [2] stood at 4 µg/mL; in the experiment with E. cloacae P99 (AmpC), 8 µg/mL; in the experiment on E. coli RGN238 (OXA-1), 1 µg/mL; in experiment [5] it was 8 µg/mL; in [6], 4 µg/mL. Further, the “MIC of CAZ in combination” value in [2] was less than 0.25 µg/mL; in the experiment with E. cloacae P99 (AmpC), 0.25 µg/mL; in the experiment on E. coli RGN238 (OXA-1), less than 0.25 µg/mL; in experiment [4], less than 0.25 µg/mL; in experiment [5] it was no more than 0.125 µg/mL; in experiment [6], less than 0.25 µg/mL. For the same molecule, the “MIC of CAZ in combination” value in [8] was less than 0.25 µg/mL. The IC50 against KPC-2 came to 1.7 nM; against P99 AmpC it was 24 nM; against CTX-M-15, 0.68 nM; against OXA-1 it was 310 nM.
